Tests used:
Conditions in all cases: 250 g/ha, evaluated after 13 days, five-point scale
[1] = tested on: Amaranthus retoflexus (AMARE); test: Post-emergence herbicidal glasshouse test; assay type: in vivo
[2] = tested on: Echinochloa crus-galli (ECHCG); test: Post-emergence herbicidal glasshouse test; assay type: in vivo
[3] = tested on: AMAPA; test: Pre-emergence herbicidal glasshouse test; assay type: in vivo, Amaranthus tuberculatus
[4] = tested on: AMAPA; test: Post-emergence herbicidal glasshouse test; assay type: in vivo, Amaranthus tuberculatus
[5] = tested on: Amaranthus retoflexus (AMARE); test: Pre-emergence herbicidal glasshouse test; assay type: in vivo
[6] = tested on: Ipomoea hederacea (IPOHE); test: Pre-emergence herbicidal glasshouse test; assay type: in vivo
[7] = tested on: Ipomoea hederacea (IPOHE); test: Post-emergence herbicidal glasshouse test; assay type: in vivo
[8] = tested on: Echinochloa crus-galli (ECHCG); test: Pre-emergence herbicidal glasshouse test; assay type: in vivo

## FC(F)(F)c1ncc2c(Oc3ncc(C4CC4)cn3)cccc2n1 [Compound 1.012]
[1]
  percentage damage caused to the plant, AMARE: 1 (1=0-20%)
[2]
  percentage damage caused to the plant, ECHCG: 1 (1=0-20%)
[3]
  percentage damage caused to the plant, AMAPA: 1 (1=0-20%)
[4]
  percentage damage caused to the plant, AMAPA: 1 (1=0-20%)
[5]
  percentage damage caused to the plant, AMARE: 1 (1=0-20%)
[6]
  percentage damage caused to the plant, IPOHE: 1 (1=0-20%)
[7]
  percentage damage caused to the plant, IPOHE: 1 (1=0-20%)
[8]
  percentage damage caused to the plant, ECHCG: 1 (1=0-20%)

## Cc1ccc(Oc2ncc(Br)cn2)c2cnc(C(F)F)nc12 [Compound 1.023]
[1]
  percentage damage caused to the plant, AMARE: 2 (2=21-40%)
[2]
  percentage damage caused to the plant, ECHCG: 1 (1=0-20%)
[3]
  percentage damage caused to the plant, AMAPA: 1 (1=0-20%)
[4]
  percentage damage caused to the plant, AMAPA: 3 (3=41-60%)
[5]
  percentage damage caused to the plant, AMARE: 2 (2=21-40%)
[6]
  percentage damage caused to the plant, IPOHE: 1 (1=0-20%)
[7]
  percentage damage caused to the plant, IPOHE: 1 (1=0-20%)
[8]
  percentage damage caused to the plant, ECHCG: 1 (1=0-20%)

## COc1nc(C)c2c(Oc3ncc(Cl)cn3)cccc2n1 [Compound 1.024]
[1]
  percentage damage caused to the plant, AMARE: 1 (1=0-20%)
[2]
  percentage damage caused to the plant, ECHCG: 1 (1=0-20%)
[3]
  percentage damage caused to the plant, AMAPA: 3 (3=41-60%)
[4]
  percentage damage caused to the plant, AMAPA: 2 (2=21-40%)
[5]
  percentage damage caused to the plant, AMARE: 3 (3=41-60%)
[6]
  percentage damage caused to the plant, IPOHE: 1 (1=0-20%)
[7]
  percentage damage caused to the plant, IPOHE: 1 (1=0-20%)
[8]
  percentage damage caused to the plant, ECHCG: 1 (1=0-20%)

## Cc1cnc(Oc2ccc(C)c3nc(C(F)(F)F)ccc23)nc1 [Compound 1.025]
[1]
  percentage damage caused to the plant, AMARE: 2 (2=21-40%)
[2]
  percentage damage caused to the plant, ECHCG: 1 (1=0-20%)
[3]
  percentage damage caused to the plant, AMAPA: 1 (1=0-20%)
[4]
  percentage damage caused to the plant, AMAPA: 3 (3=41-60%)
[5]
  percentage damage caused to the plant, AMARE: 1 (1=0-20%)
[6]
  percentage damage caused to the plant, IPOHE: 1 (1=0-20%)
[7]
  percentage damage caused to the plant, IPOHE: 2 (2=21-40%)
[8]
  percentage damage caused to the plant, ECHCG: 1 (1=0-20%)

## Cc1ccc(Oc2ncc(Br)cn2)c2ccc(C(F)(F)F)nc12 [Compound 1.026]
[1]
  percentage damage caused to the plant, AMARE: 2 (2=21-40%)
[2]
  percentage damage caused to the plant, ECHCG: 1 (1=0-20%)
[3]
  percentage damage caused to the plant, AMAPA: 1 (1=0-20%)
[4]
  percentage damage caused to the plant, AMAPA: 2 (2=21-40%)
[5]
  percentage damage caused to the plant, AMARE: 1 (1=0-20%)
[6]
  percentage damage caused to the plant, IPOHE: 1 (1=0-20%)
[7]
  percentage damage caused to the plant, IPOHE: 1 (1=0-20%)
[8]
  percentage damage caused to the plant, ECHCG: 1 (1=0-20%)

## Cc1ccc(Oc2ncc(F)cn2)c2cnc(C(F)F)nc12 [Compound 1.027]
[1]
  percentage damage caused to the plant, AMARE: 2 (2=21-40%)
[2]
  percentage damage caused to the plant, ECHCG: 1 (1=0-20%)
[3]
  percentage damage caused to the plant, AMAPA: 2 (2=21-40%)
[4]
  percentage damage caused to the plant, AMAPA: 2 (2=21-40%)
[5]
  percentage damage caused to the plant, AMARE: 2 (2=21-40%)
[6]
  percentage damage caused to the plant, IPOHE: 1 (1=0-20%)
[7]
  percentage damage caused to the plant, IPOHE: 2 (2=21-40%)
[8]
  percentage damage caused to the plant, ECHCG: 1 (1=0-20%)

## Cc1ccc(Oc2ncc(Cl)cn2)c2cnc(C(F)(F)F)nc12 [Compound 1.028]
[1]
  percentage damage caused to the plant, AMARE: 2 (2=21-40%)
[2]
  percentage damage caused to the plant, ECHCG: 1 (1=0-20%)
[3]
  percentage damage caused to the plant, AMAPA: 5 (5=81-100%)
[4]
  percentage damage caused to the plant, AMAPA: 3 (3=41-60%)
[5]
  percentage damage caused to the plant, AMARE: 5 (5=81-100%)
[6]
  percentage damage caused to the plant, IPOHE: 1 (1=0-20%)
[7]
  percentage damage caused to the plant, IPOHE: 2 (2=21-40%)
[8]
  percentage damage caused to the plant, ECHCG: 2 (2=21-40%)

## Cc1ccc(Oc2ncc(F)cn2)c2ccc(C(F)(F)F)nc12 [Compound 1.029]
[1]
  percentage damage caused to the plant, AMARE: 3 (3=41-60%)
[2]
  percentage damage caused to the plant, ECHCG: 1 (1=0-20%)
[3]
  percentage damage caused to the plant, AMAPA: 3 (3=41-60%)
[4]
  percentage damage caused to the plant, AMAPA: 4 (4=61-80%)
[5]
  percentage damage caused to the plant, AMARE: 2 (2=21-40%)
[6]
  percentage damage caused to the plant, IPOHE: 1 (1=0-20%)
[7]
  percentage damage caused to the plant, IPOHE: 2 (2=21-40%)
[8]
  percentage damage caused to the plant, ECHCG: 1 (1=0-20%)

## COc1ncc2c(Oc3ncc(F)cn3)ccc(Br)c2n1 [Compound 1.030]
[1]
  percentage damage caused to the plant, AMARE: 2 (2=21-40%)
[2]
  percentage damage caused to the plant, ECHCG: 1 (1=0-20%)
[3]
  percentage damage caused to the plant, AMAPA: 1 (1=0-20%)
[4]
  percentage damage caused to the plant, AMAPA: 3 (3=41-60%)
[5]
  percentage damage caused to the plant, AMARE: 1 (1=0-20%)
[6]
  percentage damage caused to the plant, IPOHE: 1 (1=0-20%)
[7]
  percentage damage caused to the plant, IPOHE: 1 (1=0-20%)
[8]
  percentage damage caused to the plant, ECHCG: 1 (1=0-20%)

## COc1ncc2c(Oc3ncc(Br)cn3)ccc(Br)c2n1 [Compound 1.031]
[1]
  percentage damage caused to the plant, AMARE: 1 (1=0-20%)
[2]
  percentage damage caused to the plant, ECHCG: 1 (1=0-20%)
[3]
  percentage damage caused to the plant, AMAPA: 1 (1=0-20%)
[4]
  percentage damage caused to the plant, AMAPA: 1 (1=0-20%)
[5]
  percentage damage caused to the plant, AMARE: 1 (1=0-20%)
[6]
  percentage damage caused to the plant, IPOHE: 1 (1=0-20%)
[7]
  percentage damage caused to the plant, IPOHE: 1 (1=0-20%)
[8]
  percentage damage caused to the plant, ECHCG: 1 (1=0-20%)

## Cc1ccc(Oc2ncc(Cl)cn2)c2cnc(C(F)(F)Cl)nc12 [Compound 1.048]
[1]
  percentage damage caused to the plant, AMARE: 2 (2=21-40%)
[2]
  percentage damage caused to the plant, ECHCG: 1 (1=0-20%)
[3]
  percentage damage caused to the plant, AMAPA: 1 (1=0-20%)
[4]
  percentage damage caused to the plant, AMAPA: 2 (2=21-40%)
[6]
  percentage damage caused to the plant, IPOHE: 1 (1=0-20%)
[7]
  percentage damage caused to the plant, IPOHE: 1 (1=0-20%)
[8]
  percentage damage caused to the plant, ECHCG: 1 (1=0-20%)

## Cc1nc(C(F)F)nc2cccc(Oc3ncc(Cl)cn3)c12 [Compound 1.067]
[1]
  percentage damage caused to the plant, AMARE: 4 (4=61-80%)
[2]
  percentage damage caused to the plant, ECHCG: 1 (1=0-20%)
[3]
  percentage damage caused to the plant, AMAPA: 3 (3=41-60%)
[4]
  percentage damage caused to the plant, AMAPA: 4 (4=61-80%)
[6]
  percentage damage caused to the plant, IPOHE: 2 (2=21-40%)
[7]
  percentage damage caused to the plant, IPOHE: 3 (3=41-60%)
[8]
  percentage damage caused to the plant, ECHCG: 1 (1=0-20%)
